Experimental data from PubChem BioAssay (NCI).
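Values below derive from 48-hour exposures of cells grown in 96-well plates, with endpoints linearly interpolated between the two concentrations bracketing the appropriate inhibition level. GI50 = concentration required for 50% inhibition of growth. TGI marks complete inhibition of growth.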

Tests used:
Test in all cases: DTP human tumour cell line panel, 48 h
HT29 colon = test system: HT29 colon
DU-145 prostate = test system: DU-145 prostate
RPMI-8226 leukemia = test system: RPMI-8226 leukemia
MALME-3M melanoma = test system: MALME-3M melanoma
SF-268 CNS = test system: SF-268 CNS
ACHN renal = test system: ACHN renal
SR leukemia = test system: SR leukemia
786-0 renal = test system: 786-0 renal
IGROV1 ovarian = test system: IGROV1 ovarian
SK-MEL-2 melanoma = test system: SK-MEL-2 melanoma
SK-MEL-5 melanoma = test system: SK-MEL-5 melanoma
SF-295 CNS = test system: SF-295 CNS
LOX IMVI melanoma = test system: LOX IMVI melanoma
SK-OV-3 ovarian = test system: SK-OV-3 ovarian
TK-10 renal = test system: TK-10 renal
MDA-MB-231 breast = test system: MDA-MB-231 breast
HCT-116 colon = test system: HCT-116 colon
A498 renal = test system: A498 renal
SNB-75 CNS = test system: SNB-75 CNS
SW-620 colon = test system: SW-620 colon
MOLT-4 leukemia = test system: MOLT-4 leukemia
KM12 colon = test system: KM12 colon
HL-60(TB) leukemia = test system: HL-60(TB) leukemia
HCT-15 colon = test system: HCT-15 colon
NCI-H226 lung = test system: NCI-H226 lung
MCF7 breast = test system: MCF7 breast
NCI-H460 lung = test system: NCI-H460 lung
NCI/ADR-RES ovarian = test system: NCI/ADR-RES ovarian
SNB-19 CNS = test system: SNB-19 CNS
U251 CNS = test system: U251 CNS
OVCAR-8 ovarian = test system: OVCAR-8 ovarian
MDA-MB-435 = test system: MDA-MB-435
SF-539 CNS = test system: SF-539 CNS
PC-3 prostate = test system: PC-3 prostate
SN12C renal = test system: SN12C renal
CCRF-CEM leukemia = test system: CCRF-CEM leukemia
HCC-2998 colon = test system: HCC-2998 colon
HS 578T breast = test system: HS 578T breast
OVCAR-5 ovarian = test system: OVCAR-5 ovarian
OVCAR-4 ovarian = test system: OVCAR-4 ovarian
OVCAR-3 ovarian = test system: OVCAR-3 ovarian
RXF 393 renal = test system: RXF 393 renal
EKVX NSCLC = test system: EKVX NSCLC
SK-MEL-28 melanoma = test system: SK-MEL-28 melanoma
BT-549 breast = test system: BT-549 breast
K-562 leukemia = test system: K-562 leukemia
UACC-257 melanoma = test system: UACC-257 melanoma
UACC-62 melanoma = test system: UACC-62 melanoma
NCI-H23 lung = test system: NCI-H23 lung
HOP-62 NSCLC = test system: HOP-62 NSCLC
M14 melanoma = test system: M14 melanoma
UO-31 renal = test system: UO-31 renal
A549 NSCLC = test system: A549 NSCLC
COLO 205 colon = test system: COLO 205 colon
CAKI-1 renal = test system: CAKI-1 renal
NCI-H522 lung = test system: NCI-H522 lung

`O=C1c2ccccc2C(=O)c2c1c(=O)c(=O)c1ccccc1c(=O)n2Cc1ccccc1` showed a GI50 (HT29 colon) of over 100 µM, a TGI (HT29 colon) of over 100 µM and a GI50 (DU-145 prostate) of 47.9 µM. It also gave a TGI (DU-145 prostate) of over 100 µM, a GI50 (RPMI-8226 leukemia) of 28.5 µM and a TGI (RPMI-8226 leukemia) of 85.2 µM. For the same compound, the GI50 (MALME-3M melanoma) was 28.6 µM, the TGI (MALME-3M melanoma) was 80.1 µM and the GI50 (SF-268 CNS) was over 100 µM. For the same compound, the TGI (SF-268 CNS) was over 100 µM, the GI50 (ACHN renal) was over 100 µM and the TGI (ACHN renal) was over 100 µM. For the same compound, the GI50 (SR leukemia) was 29 µM, the TGI (SR leukemia) was over 100 µM and the GI50 (786-0 renal) was over 100 µM. It also gave a TGI (786-0 renal) of over 100 µM, a GI50 (IGROV1 ovarian) of 79.2 µM and a TGI (IGROV1 ovarian) of over 100 µM. It also gave a GI50 (SK-MEL-2 melanoma) of over 100 µM, a TGI (SK-MEL-2 melanoma) of over 100 µM and a GI50 (SK-MEL-5 melanoma) of 15.8 µM. The TGI (SK-MEL-5 melanoma) was 47.2 µM, the GI50 (SF-295 CNS) was 53.1 µM and the TGI (SF-295 CNS) was over 100 µM. The GI50 (LOX IMVI melanoma) was 92.9 µM, the TGI (LOX IMVI melanoma) was over 100 µM and the GI50 (SK-OV-3 ovarian) was over 100 µM. It also gave a TGI (SK-OV-3 ovarian) of over 100 µM, a GI50 (TK-10 renal) of over 100 µM and a TGI (TK-10 renal) of over 100 µM. It also gave a GI50 (MDA-MB-231 breast) of over 100 µM, a TGI (MDA-MB-231 breast) of over 100 µM and a GI50 (HCT-116 colon) of over 100 µM. The TGI (HCT-116 colon) was over 100 µM, the GI50 (A498 renal) was over 100 µM and the TGI (A498 renal) was over 100 µM. The GI50 (SNB-75 CNS) was over 100 µM, the TGI (SNB-75 CNS) was over 100 µM and the GI50 (SW-620 colon) was over 100 µM. It also gave a TGI (SW-620 colon) of over 100 µM, a GI50 (MOLT-4 leukemia) of 38.2 µM and a TGI (MOLT-4 leukemia) of over 100 µM. The GI50 (KM12 colon) was 81.9 µM, the TGI (KM12 colon) was over 100 µM and the GI50 (HL-60(TB) leukemia) was 41.8 µM. It also gave a TGI (HL-60(TB) leukemia) of over 100 µM, a GI50 (HCT-15 colon) of over 100 µM and a TGI (HCT-15 colon) of over 100 µM. For the same compound, the GI50 (NCI-H226 lung) was over 100 µM, the TGI (NCI-H226 lung) was over 100 µM and the GI50 (MCF7 breast) was 79.1 µM. It also gave a TGI (MCF7 breast) of over 100 µM, a GI50 (NCI-H460 lung) of 50.7 µM and a TGI (NCI-H460 lung) of over 100 µM. The GI50 (NCI/ADR-RES ovarian) was over 100 µM, the TGI (NCI/ADR-RES ovarian) was over 100 µM and the GI50 (SNB-19 CNS) was over 100 µM. The TGI (SNB-19 CNS) was over 100 µM, the GI50 (U251 CNS) was over 100 µM and the TGI (U251 CNS) was over 100 µM. It also gave a GI50 (OVCAR-8 ovarian) of over 100 µM, a TGI (OVCAR-8 ovarian) of over 100 µM and a GI50 (MDA-MB-435) of over 100 µM. The TGI (MDA-MB-435) was over 100 µM, the GI50 (SF-539 CNS) was over 100 µM and the TGI (SF-539 CNS) was over 100 µM. The GI50 (PC-3 prostate) was over 100 µM, the TGI (PC-3 prostate) was over 100 µM and the GI50 (SN12C renal) was over 100 µM. For the same compound, the TGI (SN12C renal) was over 100 µM, the GI50 (CCRF-CEM leukemia) was 7.67 µM and the TGI (CCRF-CEM leukemia) was over 100 µM. The GI50 (HCC-2998 colon) was 84.2 µM, the TGI (HCC-2998 colon) was over 100 µM and the GI50 (HS 578T breast) was over 100 µM. The TGI (HS 578T breast) was over 100 µM, the GI50 (OVCAR-5 ovarian) was over 100 µM and the TGI (OVCAR-5 ovarian) was over 100 µM. It also gave a GI50 (OVCAR-4 ovarian) of over 100 µM, a TGI (OVCAR-4 ovarian) of over 100 µM and a GI50 (OVCAR-3 ovarian) of 88.8 µM. The TGI (OVCAR-3 ovarian) was over 100 µM, the GI50 (RXF 393 renal) was over 100 µM and the TGI (RXF 393 renal) was over 100 µM. The GI50 (EKVX NSCLC) was over 100 µM, the TGI (EKVX NSCLC) was over 100 µM and the GI50 (SK-MEL-28 melanoma) was over 100 µM. It also gave a TGI (SK-MEL-28 melanoma) of over 100 µM, a GI50 (BT-549 breast) of over 100 µM and a TGI (BT-549 breast) of over 100 µM. It also gave a GI50 (K-562 leukemia) of 53.7 µM, a TGI (K-562 leukemia) of over 100 µM and a GI50 (UACC-257 melanoma) of over 100 µM. It also gave a TGI (UACC-257 melanoma) of over 100 µM, a GI50 (UACC-62 melanoma) of 66.3 µM and a TGI (UACC-62 melanoma) of over 100 µM. The GI50 (NCI-H23 lung) was 8.51 µM, the TGI (NCI-H23 lung) was over 100 µM and the GI50 (HOP-62 NSCLC) was over 100 µM. For the same compound, the TGI (HOP-62 NSCLC) was over 100 µM, the GI50 (M14 melanoma) was 36.6 µM and the TGI (M14 melanoma) was over 100 µM. It also gave a GI50 (UO-31 renal) of over 100 µM, a TGI (UO-31 renal) of over 100 µM and a GI50 (A549 NSCLC) of 47.2 µM. It also gave a TGI (A549 NSCLC) of over 100 µM, a GI50 (COLO 205 colon) of over 100 µM and a TGI (COLO 205 colon) of over 100 µM. The GI50 (CAKI-1 renal) was over 100 µM, the TGI (CAKI-1 renal) was over 100 µM and the GI50 (NCI-H522 lung) was over 100 µM. For the same compound, the TGI (NCI-H522 lung) was over 100 µM.
